Experimental data taken from ChEMBL document CHEMBL1152231, “Discovery of small molecule agonists for the bombesin receptor subtype 3 (BRS-3) based on an omeprazole lead” (Bioorg Med Chem Lett, 2008).
Square brackets hold non-standard residues; d marks the D form. Peptide text beside a SMILES is read from it. Nle = CCCC[C@H](N)C(=O)O; βAla = NCCC(=O)O

Experiments:
[1] = Half life in iv dosed rat; assay type: ADME, organism-based; details: in vivo
[2] = Volume of distribution at steady state in iv dosed rat; assay type: ADME, organism-based; details: in vivo, read-out: Vdss
[3] = molecular target: T1, Bombesin receptor subtype-3 (Homo sapiens) (UniProt P32247); test: Agonist activity at recombinant BRS-3 receptor expressed in baculovirus-transduced HEK293 cells assessed as maximum response of intracellular calcium mobilization by FLIPR assay relative to D-Phe-Gln-Trp-Ala-Val-beta-Ala-His-Phe-Nle-NH2; assay type: functional
T1 sequence (whole entry): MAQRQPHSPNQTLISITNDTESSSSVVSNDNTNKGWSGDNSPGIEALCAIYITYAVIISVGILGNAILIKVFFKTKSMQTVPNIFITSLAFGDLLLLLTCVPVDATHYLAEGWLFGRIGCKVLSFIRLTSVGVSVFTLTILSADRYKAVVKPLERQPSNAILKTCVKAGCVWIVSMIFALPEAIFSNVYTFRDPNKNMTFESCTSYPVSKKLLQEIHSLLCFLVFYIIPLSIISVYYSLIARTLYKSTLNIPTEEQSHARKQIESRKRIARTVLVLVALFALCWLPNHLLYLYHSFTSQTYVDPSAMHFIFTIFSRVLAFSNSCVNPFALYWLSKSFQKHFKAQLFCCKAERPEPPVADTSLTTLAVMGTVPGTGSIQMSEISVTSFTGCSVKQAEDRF

[4] = Clearance in iv dosed rat; assay type: ADME, organism-based; details: in vivo
[5] = molecular target: T2, Bombesin receptor subtype-3 (Homo sapiens, UniProt P32247); test: Agonist activity at recombinant BRS-3 receptor expressed in baculovirus-transduced HEK293 cells assessed as intracellular calcium mobilization by FLIPR assay; assay type: functional
T2 sequence (P32247 whole entry): T1 sequence (whole entry)

[6] = molecular target: T3, Neuromedin-B receptor (Homo sapiens, UniProt P28336); test: Binding affinity to neuromedin B receptor
T3 sequence (P28336 whole entry): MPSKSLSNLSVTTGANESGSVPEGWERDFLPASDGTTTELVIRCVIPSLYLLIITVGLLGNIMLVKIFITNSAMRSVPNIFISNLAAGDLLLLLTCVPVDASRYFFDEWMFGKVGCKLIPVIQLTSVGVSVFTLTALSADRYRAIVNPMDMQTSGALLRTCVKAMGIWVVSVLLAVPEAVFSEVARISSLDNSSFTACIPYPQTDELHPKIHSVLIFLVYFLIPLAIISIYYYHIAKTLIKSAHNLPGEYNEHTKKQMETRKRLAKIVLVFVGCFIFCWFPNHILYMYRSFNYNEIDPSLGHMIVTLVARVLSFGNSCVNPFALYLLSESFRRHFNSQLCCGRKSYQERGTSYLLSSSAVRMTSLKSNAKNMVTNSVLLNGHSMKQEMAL

[7] = molecular target: T3, Neuromedin-B receptor; test: Agonist activity at recombinant neuromedin B receptor expressed in baculovirus-transduced HEK293 cells assessed as intracellular calcium mobilization by FLIPR assay; assay type: functional
[8] = molecular target: T4, Gastrin-releasing peptide receptor (Homo sapiens, UniProt P30550); test: Binding affinity to gastrin releasing peptide receptor
T4 sequence (P30550 whole entry): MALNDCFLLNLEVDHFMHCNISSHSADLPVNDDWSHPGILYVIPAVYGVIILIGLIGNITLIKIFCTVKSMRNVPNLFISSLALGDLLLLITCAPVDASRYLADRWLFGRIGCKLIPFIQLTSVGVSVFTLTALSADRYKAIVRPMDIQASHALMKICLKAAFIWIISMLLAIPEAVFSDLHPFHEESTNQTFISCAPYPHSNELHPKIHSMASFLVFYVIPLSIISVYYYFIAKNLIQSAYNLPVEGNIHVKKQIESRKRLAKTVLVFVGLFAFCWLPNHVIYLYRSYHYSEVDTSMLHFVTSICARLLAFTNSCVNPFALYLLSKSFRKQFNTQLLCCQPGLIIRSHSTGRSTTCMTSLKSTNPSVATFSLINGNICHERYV

[9] = molecular target: T4, Gastrin-releasing peptide receptor; test: Agonist activity at recombinant gastrin releasing peptide receptor expressed in baculovirus-transduced HEK293 cells assessed as intracellular calcium mobilization by FLIPR assay; assay type: functional
[10] = molecular target: T2, Bombesin receptor subtype-3; test: Binding affinity to BRS-3 receptor

Row | %max [3] [%] | EC50 [5] [µM] | Structure (SMILES) | other results
1 | 71 | 0.51 | COc1ccc2nc(COc3cc4c(cc3Cl)OCO4)[nH]c2c1 | half-life [1]: 30 min; Vd [2]: 1.2 L/kg; clearance [4]: 61 mL/min/kg
2 | – | > 32 | COc1ccc2nc(NC(=O)c3cc4c(cc3Cl)OCO4)[nH]c2c1 | –
3 | – | > 32 | COc1ccc2nc(SCc3ccc4ccccc4c3)[nH]c2c1 | –
4 | – | > 32 | COc1ccc2nc(/C=C/c3cc4c(cc3Cl)OCO4)[nH]c2c1 | –
5 | – | > 32 | COc1ccc2nc(SCc3ccc(F)c(F)c3)[nH]c2c1 | –
6 | – | > 32 | COc1ccc2oc(CCc3cc4c(cc3Cl)OCO4)nc2c1 | –
7 | 64 | 3.9 | COc1ccc2[nH]c(SCc3ncc(C)c(OC)c3C)nc2c1 [UFIPRAZOLE] | –
8 | – | > 32 | COc1ccc2nc(SCc3n[nH]c4ccccc34)[nH]c2c1 | –
9 | 82 | 0.21 | COc1ccc2nc(CCc3cc4c(cc3Cl)OCO4)[nH]c2c1 | –
10 | – | > 32 | COc1ccc2nc(CCc3cc4c(cc3Cl)OCO4)oc2c1 | –
11 | – | > 32 | COc1ccc2nc(CCc3cc4c(cc3Cl)OCO4)sc2c1 | –
12 | 69 | 0.24 | FC(F)(F)c1ccc2nc(COc3cc4c(cc3Cl)OCO4)[nH]c2c1 | –
13 | – | > 32 | COc1ccc2nc(NCc3cc4c(cc3Cl)OCO4)[nH]c2c1 | –
14 | – | 0.0039 | CCCC[C@H](NC(=O)[C@H](Cc1ccccc1)NC(=O)[C@H](Cc1c[nH]cn1)NC(=O)CCNC(=O)[C@@H](NC(=O)[C@H](C)NC(=O)[C@H](Cc1c[nH]c2ccccc12)NC(=O)[C@H](CCC(N)=O)NC(=O)[C@H](N)Cc1ccccc1)C(C)C)C(N)=O (H-[dF]QWAV[βAla]HF[Nle]-NH2) | Ki [6]: 8.9 nM; EC50 [7]: 0.55 nM; Ki [8]: 0.99 nM; EC50 [9]: 0.06 nM; Ki [10]: 0.36 nM
15 | – | > 32 | Cc1cc2nc(COc3cc4c(cc3Cl)OCO4)[nH]c2cc1Cl | –
16 | – | > 32 | COc1ccc2sc(CCc3cc4c(cc3Cl)OCO4)nc2c1 | –
17 | 83 | 0.35 | COc1ccc2nc(C(C)Cc3cc4c(cc3Cl)OCO4)[nH]c2c1 (stereo not given) | –
18 | 59 | 0.57 | Clc1ccc2nc(COc3cc4c(cc3Cl)OCO4)[nH]c2c1 | –
19 | 27 | 14 | COc1ccc2[nH]c([S+]([O-])Cc3ncc(C)c(OC)c3C)nc2c1 (stereo not given) [OMEPRAZOLE] | –
20 | – | > 32 | Clc1cc2c(cc1OCc1nc3ccc(Oc4ccccc4)cc3[nH]1)OCO2 | –
21 | 68 | 1.6 | COc1cc(CSc2nc3ccc(OC)cc3[nH]2)cc(OC)c1 | –
22 | – | > 32 | COc1ccc2nc(SCc3ccncc3)[nH]c2c1 | –
23 | 67 | 0.38 | COc1ccc2nc(SCc3cc4c(cc3Cl)OCO4)[nH]c2c1 | –
